These are literature values, as cited in patent US20240164375A1, “LIQUID DISINFECTANT COMPOSITION AND USE THEREOF” (HYPRED, priority 2002, published 2024).

For this data set the following is noted: 25° C.

For orientation: pKa means the pH at which an ionisable group is half protonated. As to `CCCCCCCC(=O)O` [octanoic acid], the pKa was 4.85.
